*1 amine or outer side, *2 acyl side, *3 side chain or, on linkers, in order; H or OH if unused. Where a SMILES comes first, the peptide text is derived from it. Side-chain parts run from the residue outwards. [ ]: non-standard residue; d: D form. The star is where a group is joined. Cbz = O=C(OCc1ccccc1)*; Dap = NC[C@H](N)C(=O)O; CO = O=C([*:1])[*:2]; NHBn = c1ccc(CN*)cc1

T1 sequence (P17301 30-1181): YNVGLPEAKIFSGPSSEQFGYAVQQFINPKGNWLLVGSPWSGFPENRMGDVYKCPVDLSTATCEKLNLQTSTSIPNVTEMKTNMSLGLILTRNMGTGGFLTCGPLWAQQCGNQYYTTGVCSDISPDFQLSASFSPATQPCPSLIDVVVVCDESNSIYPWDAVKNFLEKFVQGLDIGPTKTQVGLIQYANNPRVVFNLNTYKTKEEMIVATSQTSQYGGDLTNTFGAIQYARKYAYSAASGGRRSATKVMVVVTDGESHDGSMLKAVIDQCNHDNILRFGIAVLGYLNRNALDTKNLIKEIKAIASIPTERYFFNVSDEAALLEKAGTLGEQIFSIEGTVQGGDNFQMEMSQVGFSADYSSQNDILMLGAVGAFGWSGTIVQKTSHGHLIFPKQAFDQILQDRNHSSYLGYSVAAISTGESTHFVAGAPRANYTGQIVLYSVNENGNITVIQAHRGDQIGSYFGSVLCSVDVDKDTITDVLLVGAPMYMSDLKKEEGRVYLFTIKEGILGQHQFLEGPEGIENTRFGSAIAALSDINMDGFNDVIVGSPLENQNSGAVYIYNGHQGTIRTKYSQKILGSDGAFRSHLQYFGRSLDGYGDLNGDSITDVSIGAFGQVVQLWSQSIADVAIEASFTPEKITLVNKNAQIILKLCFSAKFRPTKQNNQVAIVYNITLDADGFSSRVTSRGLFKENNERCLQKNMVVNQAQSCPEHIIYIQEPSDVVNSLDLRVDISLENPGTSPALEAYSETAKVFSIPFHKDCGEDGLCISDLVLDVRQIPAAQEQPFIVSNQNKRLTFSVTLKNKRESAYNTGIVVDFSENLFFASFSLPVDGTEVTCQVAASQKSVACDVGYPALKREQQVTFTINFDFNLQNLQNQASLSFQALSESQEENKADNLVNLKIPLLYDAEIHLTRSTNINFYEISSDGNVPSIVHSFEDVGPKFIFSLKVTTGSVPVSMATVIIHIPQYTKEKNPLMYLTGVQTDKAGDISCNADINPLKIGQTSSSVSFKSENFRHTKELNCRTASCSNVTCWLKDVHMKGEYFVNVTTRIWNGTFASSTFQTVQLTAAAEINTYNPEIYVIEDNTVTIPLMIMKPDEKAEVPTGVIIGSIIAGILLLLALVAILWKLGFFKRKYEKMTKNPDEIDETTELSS
T1 sequence (P05556 21-798): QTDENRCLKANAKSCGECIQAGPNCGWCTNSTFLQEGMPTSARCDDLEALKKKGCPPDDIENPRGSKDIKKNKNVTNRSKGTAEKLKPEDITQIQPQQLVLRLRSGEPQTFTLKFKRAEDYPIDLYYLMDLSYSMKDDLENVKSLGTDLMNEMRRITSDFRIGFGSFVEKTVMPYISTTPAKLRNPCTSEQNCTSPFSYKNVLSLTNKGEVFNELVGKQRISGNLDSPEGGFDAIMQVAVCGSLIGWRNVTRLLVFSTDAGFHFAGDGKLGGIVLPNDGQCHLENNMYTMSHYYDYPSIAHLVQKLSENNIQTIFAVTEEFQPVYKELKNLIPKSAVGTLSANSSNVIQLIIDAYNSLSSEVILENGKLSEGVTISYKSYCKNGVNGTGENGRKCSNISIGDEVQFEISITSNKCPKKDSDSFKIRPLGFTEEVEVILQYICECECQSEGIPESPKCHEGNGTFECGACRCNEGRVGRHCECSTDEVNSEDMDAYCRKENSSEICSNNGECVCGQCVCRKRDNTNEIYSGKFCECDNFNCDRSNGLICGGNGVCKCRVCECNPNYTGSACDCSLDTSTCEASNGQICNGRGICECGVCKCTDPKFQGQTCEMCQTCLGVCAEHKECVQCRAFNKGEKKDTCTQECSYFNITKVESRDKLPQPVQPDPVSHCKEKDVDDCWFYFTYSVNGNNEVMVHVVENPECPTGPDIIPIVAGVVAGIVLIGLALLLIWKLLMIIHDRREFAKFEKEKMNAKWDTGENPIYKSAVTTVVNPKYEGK

The experiment addresses T1, α2β1 integrin (Homo sapiens, UniProt P05556+P17301).
T1 construct: endogenous in cells; host or cells: gel-filtered human platelets of a single donor
Put plainly: Platelet adhesion assay (human platelet adhesion to type I collagen). Type of experiment: cell-based. To be noted: human platelet adhesion to type I (soluble, monomeric) collagen, static conditions; single donor; read-out: IC50. On the procedure:
The inhibitory strength of the compounds of the present disclosure was analyzed as against platelet adhesion to type I collagen. Ninety-six well flat bottom microtiter plates (Immulon 2, Dynatech Laboratories, Chantilly, Va.) were coated with collagen, purified human fibrinogen, or bovine serum albumin, each dissolved in 50 mM NaHCO3 buffer, pH 8.0, containing 150 mM NaCl as previously described. See Bennett J S, Chan C, Vilaire G, Mousa S A, DeGrado W F. Agonist-Activated αvβ3 on Platelets and Lymphocytes Binds to the Matrix Protein Osteopontin. J Biol Chem. 272, 8137-814) (1997). Unoccupied protein binding sites on the wells were blocked with 5 mg/ml bovine serum albumin dissolved in the same buffer. Human platelets were isolated from blood anticoagulated with 0.1 volume 3.8% sodium citrate by gel-filtration using a 4 mM HEPES buffer, pH 7.4, containing 135 mM NaCl, 2.7 mM KCl, 5.6 mM glucose, 3.3 mM NaH2PO4, 0.35 mg/ml bovine serum albumin and various concentrations of CaCl2 or MgCl2 according to the experiment. One hundred μl aliquots of the gel-filtered platelet suspension containing 1-2×10^8 platelets were added to the protein-coated wells in the absence or presence of a platelet agonist. Following an incubation for 30 min at 37° C. without agitation, the plates were washed 4 times with the Tris-buffered NaCl, containing 2 mM MgCl2, pH 7.4, and the number of adherent platelets measured using the colorimetric assay reported by Bellavite P, Andrioli G, Guzzo P, et al. A colorimetric method for the measurement of platelet adhesion in microtiter plates. Anal Biochem. 216, 444-450 (1994). Briefly, 150 μl of a 0.1 M citrate buffer, pH 5.4, containing 5 mM p-nitrophenyl phosphate and 0.1% Triton X-100 was added to the wells after washing. After an incubation for 60 min at room temperature in the absence of ambient light, color was developed by the addition of 100 μl of 2N NaOH and, using EL800 Universal Microplate Reader (Bio-Tek Instruments, Inc., Winooski, Vt.), read in microtiter plate reader at 405 nm.
The potencies of the compounds of the present disclosure were determined by testing the ability of a range of concentrations of each compound to inhibit human platelet adhesion to soluble collagen under static conditions. Owing to the fact that soluble collagen is a specific ligand for α2β1 integrin, this is an accepted method of assessing α2β1 inhibition on platelets.
IC50 values were determined by using the platelets of a single donor. In cases where multiple assays were performed, the reported results reflect the average IC50 value derived from the separate assays.
By IC50 is commonly meant the concentration at which inhibition is half-maximal. Take `O=C(NCc1ccccc1)NC[C@H](NC(=O)[C@@H]1C=CCN1S(=O)(=O)c1ccccc1)C(=O)O` (stereo in doubt) [Compound 52, 2-[(1-Benzenesulfonyl-2,5-dihydro-1H-pyrrole-2-carbonyl)-amino]-3-(3-benzyl-ureido)-propionic acid]: the IC50 is 143 nM.
As for `CC(C)(C)OC(=O)NC[C@H](NC(=O)[C@@H]1CCCN1S(=O)(=O)c1ccc([N+](=O)[O-])cc1)C(=O)O` [Compound 1, 3-tert-Butoxycarbonylamino-2-{[1-(4-nitro-benzenesulfonyl)-pyrrolidine-2-carbonyl]-amino}-propionic acid], the figure is 2620 nM.
For `O=C(NC[C@H](NC(=O)[C@@H]1CCCN1S(=O)(=O)c1ccc([N+](=O)[O-])cc1)C(=O)O)OCc1ccccc1` [Compound 2, 3-Benzyloxycarbonylamino-2-{[1-(4-nitro-benzenesulfonyl)-pyrrolidine-2-carbonyl]-amino}-propionic acid], the concentration for half-maximal inhibition (IC50) amounted to 2300 nM.
With `O=C(NC[C@H](NC(=O)[C@@H]1CCCN1S(=O)(=O)c1ccc([N+](=O)[O-])cc1)C(=O)O)c1ccccc1` [Compound 3, 3-Benzoylamino-2-{[1-(4-nitro-benzenesulfonyl)-pyrrolidine-2-carbony]-amino}-propionic acid], the IC50 worked out at 2310 nM.
With `O=C(CCc1ccccc1)NC[C@H](NC(=O)[C@@H]1CCCN1S(=O)(=O)c1ccc([N+](=O)[O-])cc1)C(=O)O` [Compound 4, 2-{[1-(4-Nitro-benzenesulfonyl)-pyrrolidine-2-carbonyl]-amino}-3-(3-phenyl-propionylamino)-propionic acid], the IC50 worked out at 4750 nM.
In the case of `O=C(NCc1ccccc1)NC[C@H](NC(=O)[C@@H]1CCCN1S(=O)(=O)c1ccc([N+](=O)[O-])cc1)C(=O)O` [Compound 5, 3-(3-Benzyl-ureido)-2-{[1-(4-nitro-benzenesulfonyl)-pyrrolidine-2-carbonyl]-amino}-propionic acid], the IC50 stood at 105 nM.
Turning to `CC(C)(C)OC(=O)CC[C@H](NC(=O)[C@@H]1CCCN1S(=O)(=O)c1ccc([N+](=O)[O-])cc1)C(=O)O` [Compound 6, 2-{[1-(4-Nitro-benzenesulfonyl)-pyrrolidine-2-carbonyl]-amino}-pentanedioic acid 5-tert-butyl ester], the IC50 turned out to be 22300 nM.
Regarding `O=C(NCc1ccccc1Cl)NC[C@H](NC(=O)[C@@H]1CCCN1S(=O)(=O)c1ccc([N+](=O)[O-])cc1)C(=O)O` [Compound 7, 3-[3-(2-Chloro-benzyl)-ureido]-2-{[1-(4-nitro-benzenesulfonyl)-pyrrolidine-2-carbonyl]-amino}-propionic acid], the IC50 amounted to 985 nM.
Turning to `O=C(NCc1ccc(Br)cc1)NC[C@H](NC(=O)[C@@H]1CCCN1S(=O)(=O)c1ccc([N+](=O)[O-])cc1)C(=O)O` [Compound 8, 3-[3-(4-Bromo-benzyl)-ureido]-2-{[1-(4-nitro-benzenesulfonyl)-pyrrolidine-2-carbonyl]-amino}-propionic acid], the IC50 turned out to be 1620 nM.
Take `O=C(NC[C@H](NC(=O)[C@@H]1CCCN1S(=O)(=O)c1ccc([N+](=O)[O-])cc1)C(=O)O)Nc1ccccc1` [Compound 9, 2-{[1-(4-Nitro-benzenesulfonyl)-pyrrolidine-2-carbonyl]-amino}-3-(3-phenyl-ureido)-propionic acid]: the IC50 was found to be 3000 nM.
In the case of `O=C(NC[C@H](NC(=O)[C@@H]1CCCN1S(=O)(=O)c1ccc([N+](=O)[O-])cc1)C(=O)O)Nc1ccc([N+](=O)[O-])cc1` [Compound 10, 2-{[1-(4-Nitro-benzenesulfonyl)-pyrrolidine-2-carbonyl]-amino}-3-[3-(4-nitro-phenyl)-ureido]-propionic acid], the IC50 came out at 4600 nM.
For the compound `O=C(NC[C@H](NC(=O)[C@@H]1CCCN1S(=O)(=O)c1ccc([N+](=O)[O-])cc1)C(=O)O)Nc1ccc(-c2ccccc2)cc1` [Compound 11, 3-(3-Biphenyl-4-yl-ureido)-2-{[1-(4-nitro-benzenesulfonyl)-pyrrolidine-2-carbonyl]-amino}-propionic acid], the IC50 turned out to be 5060 nM.
Consider `COc1ccc(CNC(=O)NC[C@H](NC(=O)[C@@H]2CCCN2S(=O)(=O)c2ccc([N+](=O)[O-])cc2)C(=O)O)cc1` [Compound 12, 3-[3-(4-Methoxy-benzyl)-ureido]-2-{[1-(4-nitro-benzenesulfonyl)-pyrrolidine-2-carbonyl]-amino}-propionic acid], for which the IC50 worked out at 810 nM.
Regarding `COc1ccccc1CNC(=O)NC[C@H](NC(=O)[C@@H]1CCCN1S(=O)(=O)c1ccc([N+](=O)[O-])cc1)C(=O)O` [Compound 13, 3-[3-(2-Methoxy-benzyl)-ureido]-2-{[1-(4-nitro-benzenesulfonyl)-pyrrolidine-2-carbonyl]-amino}-propionic acid], the IC50 worked out at 1500 nM.
As for `COc1cccc(CNC(=O)NC[C@H](NC(=O)[C@@H]2CCCN2S(=O)(=O)c2ccc([N+](=O)[O-])cc2)C(=O)O)c1` [Compound 14, 3-[3-(3-Methoxy-benzyl)-ureido]-2-{[1-(4-nitro-benzenesulfonyl)-pyrrolidine-2-carbonyl]-amino}-propionic acid], the figure is 790 nM; as for `O=C(NCc1ccc(-c2ccccc2)cc1)NC[C@H](NC(=O)[C@@H]1CCCN1S(=O)(=O)c1ccc([N+](=O)[O-])cc1)C(=O)O` [Compound 15, 3-(3-Biphenyl-4-ylmethyl-ureido)-2-{[1-(4-nitro-benzenesulfonyl)-pyrrolidine-2-carbonyl]-amino}-propionic acid], 4100 nM; as for `CCCNC(=O)NC[C@H](NC(=O)[C@@H]1CCCN1S(=O)(=O)c1ccc([N+](=O)[O-])cc1)C(=O)O` [Compound 16, 2-{[1-(4-Nitro-benzenesulfonyl)-pyrrolidine-2-carbonyl]-amino}-3-(3-propyl-ureido)-propionic acid], 3600 nM.
With `CC(C)(C)NC(=O)NC[C@H](NC(=O)[C@@H]1CCCN1S(=O)(=O)c1ccc([N+](=O)[O-])cc1)C(=O)O` [Compound 17, 3-(3-tert-Butyl-ureido)-2-{[1-(4-nitro-benzenesulfonyl)-pyrrolidine-2-carbonyl]-amino}-propionic acid], the IC50 was 1700 nM.
Turning to `CC(C)(C)OC(=O)Nc1ccc(CNC(=O)NC[C@H](NC(=O)[C@@H]2CCCN2S(=O)(=O)c2ccc([N+](=O)[O-])cc2)C(=O)O)cc1` [Compound 18, 3-[3-(4-tert-Butoxycarbonylamino-benzyl)-ureido]-2-{[1-(4-nitro-benzenesulfonyl)-pyrrolidine-2-carbonyl]-amino}-propionic acid], the IC50 amounted to 1770 nM.
As to `Nc1ccc(CNC(=O)NC[C@H](NC(=O)[C@@H]2CCCN2S(=O)(=O)c2ccc([N+](=O)[O-])cc2)C(=O)O)cc1` [Compound 19, 3-[3-(4-Amino-benzyl)-ureido]-2-{[1-(4-nitro-benzenesulfonyl)-pyrrolidine-2-carbonyl]-amino}-propionic acid], the IC50 worked out at 460 nM.
Turning to `CC(=O)Nc1ccc(S(=O)(=O)N2CCC[C@H]2C(=O)N[C@@H](CNC(=O)NCc2ccccc2)C(=O)O)cc1` [Compound 21, 2-{[1-(4-Acetylamino-benzenesulfonyl)-pyrrolidine-2-carbonyl]-amino}-3-(3-benzyl-ureido)-propionic acid], the IC50 was 131 nM.
In the case of `O=C(NCc1ccccc1)NC[C@H](NC(=O)[C@@H]1CCCN1S(=O)(=O)Cc1ccccc1)C(=O)O` [Compound 22, 3-(3-Benzyl-ureido)-2-[(1-phenylmethanesulfonyl-pyrrolidine-2-carbonyl)-amino]-propionic acid], the IC50 came out at 11700 nM.
In the case of `O=C(NCc1ccccc1)NC[C@H](NC(=O)[C@@H]1CCCN1C(=O)OCc1ccccc1)C(=O)O` [Compound 23, 2-[2-(3-Benzyl-ureido)-1-carboxy-ethylcarbarmoyl]-pyrrolidine-1-carboxylic acid benzyl ester] (Cbz-Pro-[Dap]([CO-NHBn])-OH), the IC50 amounted to 28000 nM.
The result for `O=C(NCc1ccccc1)NC[C@H](NC(=O)[C@@H]1CCCN1S(=O)(=O)c1ccc(-c2ccccc2)cc1)C(=O)O` [Compound 24, 3-(3-Benzyl-ureido)-2-{[1-(biphenyl-4-sulfonyl)-pyrrolidine-2-carbonyl]-amino}-propionic acid] reads 287 nM; that for `Nc1ccc(S(=O)(=O)N2CCC[C@H]2C(=O)N[C@H](CNC(=O)NCc2ccccc2)C(=O)O)cc1` [Compound 25, 2-{[1-(4-Amino-benzenesulfonyl)-pyrrolidine-2-carbonyl]-amino}-3-(3-benzyl-ureido)-propionic acid], 2030 nM.

Source of the values: patent US8258159B2, “Inhibitors of the α2β1/GPIa-IIa integrin” (The Trustees Of The University Of Pennsylvania, priority 2005, dated 2012).
